Data as given in patent US8921363B2, “Derivatives of 1 H-isoindol-3-amine, 1 H-iso-aza-indol-3amine, 3,4-dihydroisoquinolin-1-amine, and 1,4-dihydroisoquinolin-3-amine as beta-secretase inhibitors” (Amgen Inc., priority 2010, dated 2014).

How the values were obtained:
[1] = biological target: BACE1 (Homo sapiens, UniProt P56817); assay: In vitro enzymatic BACE FRET assay; assay type: biochemical
Protocol: In Vitro Enzymatic BACE FRET (fluorescence resonance energy transfer) Assay (Enzyme Assay data in the Example Table I)
The assay buffer used in this screen is 0.05 M acetate, pH 4.2, 10% DMSO final, 100 uM genapol (which is a nonionic detergent, below its Critical Micelle Concentration). […] This assay is effectively started by the addition of FRET substrate (50 nM) and the combination is incubated for one hour. The FRET assay is terminated with by addition of Tris buffer, which raises the pH to neutrality, and the fluorescence is determined. The FRET substrate is a peptide with commercially available fluorophore and quencher, on opposite sides of the BACE cleavage site. Proteolytic cleavage of the FRET substrate releases quenching of fluorescence (excitation […] and […]).

[2] = tested on: Aβ40 in conditioned medium of cells expressing amyloid precursor protein; assay: In vitro BACE cell-based assay (HEK cell assay, Aβ40 sandwich ELISA); details: Homo sapiens, HEK293; average IC50; Aβ40 after 24 h incubation
[3] = tested on: amyloid beta peptide; assay: In vivo inhibition of beta-secretase (CSF and brain abeta reduction); details: rat, PD dose of 10 mg/kg, after 4 hrs
Source text: Several animal models, including mouse, rat, dog, and monkey, may be used to screen for inhibition of beta-secretase activity in vivo following administration of a test compound sample. Animals used in this invention can be wild type, transgenic, or gene knockout animals. For example, the Tg2576 mouse model, prepared and conducted as described in Hsiao et al., 1996, Science 274, 99-102, and other non-transgenic or gene knockout animals are useful to analyze in vivo inhibition of Amyloid beta peptide (Abeta) production in the presence of inhibitory test compounds. Generally, 2 to 18 month old Tg2576 mice, gene knockout mice or non-transgenic animals are administered test compounds formulated in vehicles, such as cyclodextran, phosphate buffers, hydroxypropyl methylcellulose or other suitable vehicles. One to twenty-four hours following the administration of compound, animals are sacrificed, and brains as well as cerebrospinal fluid (CSF) and plasma are removed for analysis of A-beta levels and drug or test compound concentrations (Dovey et al., 2001, Journal of Neurochemistry, 76,173-181) Beginning at time 0, animals are administered by oral gavage, or other means of delivery such as intravenous injection, an inhibitory test compound of up to 100 mg/kg in a standard, conventional formulation, such as 2% hydroxypropyl methylcellulose, 1% Tween80. A separate group of animals receive 2% hydroxypropyl methylcellulose, 1% Tween80 alone, containing no test compound, and serve as a vehicle-control group. At the end of the test period, animals are sacrificed and brain tissues, plasma or cerebrospinal fluid are collected. Brains are either homogenized in 10 volumes (w/v) of 0.2% diethylamine (DEA) in 50 mM NaCl (Best et al., 2005, Journal of Pharmacology and Experimental Therapeutics, 313, 902-908), or in 10 volumes of 0.5% TritonX-100 in Tris-buffered saline (pH at about 7.6). Homogenates are centrifuged at 355,000 g, 4° C. for 30 minutes. CSF or brain supernatants are then analyzed for the presence of A-beta peptide by specific sandwich ELISA assays based on ECL (Electrochemiluminescence) technology. For example, rat Abeta40 is measured using biotinylated-4G8 (Signet) as a capture antibody and Fab40 (an in-house antibody specific to the C-terminal of Abeta40) as a detection antibody. For example, 4 hours after administration of 30 mg/kg oral dose of the test compound in 2% hydroxypropyl methylcellulose, 1% Tween80 (pH2.2) to 200 g male Sprague Dawley rats, amyloid beta peptide levels are measured for reduction by X % and Y % in cerebrospinal fluid and brain, respectively, when compared to the levels measured in the vehicle-treated or control mice.
Actual vehicles used: Oral: 2% HPMC, 1% Tween80, pH 2.2 […]

BACE1, sequence (P56817 46-501): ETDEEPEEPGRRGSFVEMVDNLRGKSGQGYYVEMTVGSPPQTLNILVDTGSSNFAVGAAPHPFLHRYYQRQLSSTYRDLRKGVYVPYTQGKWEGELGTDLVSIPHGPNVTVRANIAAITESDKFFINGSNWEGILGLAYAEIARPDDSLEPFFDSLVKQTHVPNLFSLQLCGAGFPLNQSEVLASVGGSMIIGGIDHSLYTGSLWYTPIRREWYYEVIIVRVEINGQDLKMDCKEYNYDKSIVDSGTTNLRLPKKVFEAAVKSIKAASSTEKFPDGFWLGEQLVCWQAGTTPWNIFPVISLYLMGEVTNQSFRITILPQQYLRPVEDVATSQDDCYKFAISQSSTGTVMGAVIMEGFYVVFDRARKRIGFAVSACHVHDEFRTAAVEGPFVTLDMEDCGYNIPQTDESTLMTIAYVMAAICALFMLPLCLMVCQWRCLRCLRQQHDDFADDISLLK

| IC50 [1] | IC50 [2] | Structure (SMILES) | CSF abeta reduction [3] | brain abeta reduction [3] |
| --- | --- | --- | --- | --- |
| 0.5 nM | 5 nM | NC1=N[C@]2(c3cc(-c4cccnc4F)ccc3Oc3c2cc(C2=CCCOC2)nc3F)c2ccccc21 (single isomer, unassigned) [Example 7-B] | 7% | 10% |
| 0.7 nM | 7 nM | NC1=N[C@]2(c3cc(-c4cccnc4F)ccc3Oc3c2cc(-c2ccnc(F)c2)nc3F)c2cccnc21 [Example 17e, (S)-1-fluoro-7-(2-fluoropyridin-3-yl)-3-(2-fluoropyridin-4-yl)spiro[chromeno[2,3-c]pyridine-5,5′-pyrrolo[3,4-b]pyridin]-7′-amine] | 41% | 28% |
| 3.7 nM | 771 nM | NC1=NC2(c3cc(-c4cccnc4F)ccc3Oc3c2cc(Cl)nc3F)c2cnccc21 (stereo not drawn) [Example 14d, 3-chloro-1-fluoro-7-(2-fluoropyridin-3-yl)spiro[chromeno[2,3-c]pyridine-5,3′-pyrrolo[3,4-c]pyridin]-1′-amine] | – | – |
| 4580 nM | > 10000 nM | NC1=NC2(c3cc(Br)ccc3Oc3c2cc(Cl)nc3F)c2cnccc21 (stereo not drawn) [Example 14c, 7-bromo-3-chloro-1-fluorospiro[chromeno[2,3-c]pyridine-5,3′-pyrrolo[3,4-c]pyridin]-1′-amine] | – | – |
| 2.5 nM | 35.5 nM | NC1=N[C@]2(c3cc(-c4cccnc4F)ccc3Oc3c2cc(Cl)nc3F)c2cnccc21 [Example 14d-2, (S)-3-chloro-1-fluoro-7-(2-fluoropyridin-3-yl)spiro[chromeno[2,3-c]pyridine-5,3′-pyrrolo[3,4-c]pyridin]-1′-amine] | – | – |
| 1 nM | 12 nM | NC1=NC2(c3cc(-c4cccnc4F)ccc3Oc3cnc(-c4ccnc(F)c4)cc32)c2ccccc21 (racemic) [Example 10, 7-(2-fluoropyridin-3-yl)-3-(2-fluoropyridin-4-yl)spiro[chromeno[2,3-c]pyridine-5,1′-isoindol]-3′-amine] | – | – |
| 0.5 nM | 2 nM | NC1=N[C@]2(c3cc(-c4cccnc4F)ccc3Oc3c2cc(C2=CCCOC2)nc3F)c2cnccc21 [Example 14-E, (S)-3-(5,6-dihydro-2H-pyran-3-yl)-1-fluoro-7-(2-fluoropyridin-3-yl)spiro[chromeno[2,3-c]pyridine-5,3′-pyrrolo[3,4-c]pyridin]-1′-amine] | – | – |
| 107 nM | 2460 nM | NC1=N[C@@]2(c3cc(-c4cccnc4F)ccc3Oc3c2cc(-c2ccnc(F)c2)nc3F)c2cnccc21 (single isomer, unassigned) [Example 14-B] | – | – |
| 3 nM | 12 nM | NC1=NC2(c3cc(-c4cccnc4F)ccc3Oc3cnc(C4=CCOCC4)cc32)c2ccccc21 (racemic) [Example 11, 3-(3,6-dihydro-2H-pyran-4-yl)-7-(2-fluoropyridin-3-yl)spiro[chromeno[2,3-c]pyridine-5,1′-isoindol]-3′-amine] | – | – |
| 0.4 nM | 8 nM | NC1=N[C@]2(c3cc(-c4cccnc4F)ccc3Oc3c2cc(-c2ccnc(F)c2)nc3F)c2cnccc21 (single isomer, unassigned) [Example 14-A] | – | – |
| 2 nM | 122 nM | NC1=NC2(c3ccccc3O1)c1cc(-c3cccnc3F)ccc1Oc1cnc(C3=CCCOC3)cc12 (racemic) [Example 18, 3′-(5,6-dihydro-2H-pyran-3-yl)-7′-(2-fluoropyridin-3-yl)spiro[benzo[e][1,3]oxazine-4,5′-chromeno[2,3-c]pyridin]-2-amine] | – | – |
| 3440 nM | > 10000 nM | NC1=N[C@]2(c3cc(Br)ccc3Oc3c2cc(Cl)nc3F)c2cccnc21 (single isomer, unassigned) [Example 17c-2] | – | – |
| 6940 nM | 64.5 nM | NC1=NC2(c3cc(Br)ccc3Oc3cnc(Cl)cc32)c2ccccc21 (racemic) [Example 10c, 7-bromo-3-chlorospiro[chromeno[2,3-c]pyridine-5,1′-isoindol]-3′-amine] | – | – |
